Structures are written as SMILES.

For assay [1], the system named is intraocular pressure (IOP) in normotensive monkeys. Description: IOP after single topical ocular dosing of Compound A with or after latanoprost in conscious normotensive monkeys (Treatments 1-5). It is filed as in vivo, cynomolgus monkeys (Macaca fascicularis). The settings on record: pre-clinical studies. On the procedure: Compound A was administered in two different formulations: […]
The aqueous formulation comprised of the following: […]
The control in the first treatment was a 40 mcL composition of 0.8% sodium chloride (NaCl), 0.15% citrate, 0.01% benzalkonium chloride, 0.3% polysorbate 80, and 0.7% sodium (Na) carboxymethylcellulose.
In the third treatment, 10 monkeys received latanoprost (Xalatan™) dosed via 2 drops at 15 mcL apart (at a concentration of 50 mcg/mL) for a total dose of 1.5 mcg in one study eye and 2 drops of saline vehicle in the contralateral eye. This treatment was performed at two separate times with a sufficient washout between treatments. The IOPs of both the study eye and contralateral eye were measured repeatedly using a calibrated pneumotonometer following an application of a topical anesthetic (proparacaine).
In the fourth treatment, 10 monkeys received latanoprost (Xalatan™) topically dosed via 2 drops at 15 mcL apart (at a concentration of 50 mcg/mL) for a total dose of 1.5 mcg in one study eye and saline in the contralateral eye. […] The intraocular pressures (IOP) of both the study eye and contralateral eye were measured repeatedly using a calibrated pneumotonometer following an application of a topical anesthetic (proparacaine). […]

For assay [2] the test system is unchanged. Put plainly: Multidose study: twice-daily topical Compound A suspension with once daily topical latanoprost, IOP in conscious monkeys. It is filed as in vivo, cynomolgus monkeys (Macaca fascicularis). How it is done:
Ten female, ocular normotensive cynomolgus monkeys (Macaca fascicularis), aged 3 to 4 years old at initiation of treatment, were acclimated to ocular topical dosing and repeated IOP measurements using a pneumatonometer (Model 30 Classic) without general anesthesia or sedation (conscious) and dosed as indicated in Table 1.
Intraocular pressure was measured from both eyes (three readings/eye/time interval with mean values represented in the data tables) beginning approximately 1 hour predose, at Time 0 (just prior to dosing), and after dosing at various time intervals. Mean IOP values and the percent change in IOP levels from the baseline level were calculated. The FIGS. 5 and 6 show summarized data from this phase of the study of the combined IOP mean values of treatments and standard deviation of the mean for the control. The control plot includes the combined mean values of all treatments (BSS alone and BSS in combination with Placebo). The mean IOP levels in the control eye ranged from 21 to 22 mmHg.

The mark [3] stands for this setting: Compound A 65 μg/dose BID plus latanoprost 1.5 μg QD, right eye.

Regarding `O=[N+]([O-])OC[C@H]1O[C@@H](n2cnc3c(NC4CCCC4)ncnc32)[C@H](O)[C@@H]1O` [Compound A, ((2R,3S,4R,5R)-5-(6-(cyclopentylamino)-9H-purin-9-yl)-3,4-dihydroxytetrahydrofuran-2-yl)methyl nitrate], the “IOP reduction by the combination of Compound A and latanoprost” value in assay [1] is on record as “significant IOP reduction”. Further, the “reduction in IOP compared with latanoprost alone” value in assay [2] (Compound A 65 μg/dose BID (130 μg/day) suspension plus latanoprost 1.5 μg QD, right eye, 1 hour after each Compound A dose (Time 0 and 5 hours)) is given as “greater reduction in IOP”. For the same compound, in assay [2] (setting [3]), the “IOP reduction at peak trough after the first daily dose” value was “approximately 12%” and the “IOP reduction at peak trough after the second daily dose” value is listed as around 17%.

`CC(C)OC(=O)CCC/C=C\C[C@@H]1[C@@H](CC[C@@H](O)CCc2ccccc2)[C@H](O)C[C@@H]1O` [latanoprost, isopropyl-(Z)-7[(1R,2R,3R,5S)3,5-dihydroxy-2-[(3R)-3-hydroxy-5-phenylpentyl]cyclopentyl]-5-heptenoate, reference compound]: the “reduction from the mean IOP baseline levels” value in assay [2] (latanoprost alone 1.5 μg/dose once daily topical, right eye, at peak trough) is “approximately 13%”. In addition, the “reduction of mean IOP levels at peak trough” value in assay [2] (latanoprost alone 1.5 μg/dose once daily topical, right eye, repeated dosing, n=10) is reported as “about 2 mm Hg”. For the same compound, in assay [2] (latanoprost alone, after repeated treatments for two weeks, including pre-dose times), the “IOP of treated eyes versus control eyes” value is “slightly lower than that of the control eyes”.

Values taken from patent publication US8877732B2, “Combination, kit and method of reducing intraocular pressure” (Inotek Pharmaceuticals Corporation, priority 2010, dated 2014).
